# Experiments:
# [1] = test system: bovine serum albumin (BSA); experiment: Staining in polyacrylamide gels not containing SDS; details: 50 mM Tris-HCl pH 8.0
# Method: (§1) A polyacrylamide gel was made containing a 10% separating gel and a 3% stacking gel having 50 mM Tris-HCl pH 8.0 as a buffer. A sample loading solution was made containing Promega Green 1 dissolved in 50 mM Tris-HCl, pH 8.0, 20% glycerol. Samples of bovine serum albumin (BSA) and carbonic anhydrase were added to the sample buffer. The samples were loaded onto the gel and the gel was assembled into a BioRad miniprotean II gel system. An electrode buffer solution of 50 mM Tris pH 8.0 was used to fill the buffer chamber and a voltage of 150 volts was applied to the apparatus. […] Therefore, the stain need not be used only in systems containing SDS.
# [2] = test system: carbonic anhydrase; experiment: Staining in polyacrylamide gels not containing SDS; details: 50 mM Tris-HCl pH 8.0
# Method: as §1
# [3] = test system: bovine serum albumin; experiment: Quantitation of proteins separated by SDS-PAGE (dye extracted from excised bands); details: 66 Kd
# Method: (§2) The samples used were prepared with Promega Mid-Range Molecular Weight Markers solution (Promega Corp., Madison, Wis., USA, Catalog No. V5231) (referred to hereinafter as "Promega Mid-Range [Molecular Weight] Markers or Standards") diluted into Sample Buffer. Promega Mid-Range Molecular Weight Markers is a solution, at about 0.5 mg/ml, of each of the following proteins as a molecular weight standard: phosphorylase B (apparent molecular weight: 97,400 daltons ("d")), bovine serum albumin (apparent molecular weight: 66,200 d), glutamate dehydrogenase (apparent molecular weight: 55,000 d), ovalbumin (apparent molecular weight: 42,700 d), aldolase (apparent molecular weight: 40,000 d), carbonic anhydrase (apparent molecular weight: 31,000 d), soybean trypsin inhibitor (apparent molecular weight: 21,500 d), and lysozyme (apparent molecular weight: 14,400 d). […] The samples were heated to 95° C. for 10 minutes with occasional vortex treatment in 1.5 ml Eppendorf centrifuge tubes and then centrifuged in an Eppendorf centrifuge for 20 seconds to ensure that the protein in the sample was denatured and well mixed.
# (§3) A 10% SDS-PAGE gel was made as described in the Example 5. Promega Mid-Range Molecular Weight Standards were diluted into loading buffer to produce solutions containing 2.0, 1.0, 0.5, and 0.25 μg of protein per band in 5 μl of solution. Duplicate 5 μl solutions of each of these solutions were loaded into 1 of the 10 sample wells in the gel after the solutions were heated at 95° C. for 10 minutes. The gel was then electrophoresed at 160 V until the running dye just eluted from the bottom of the gel. The gel was destained, and signal from stained protein enhanced, for 90 minutes in 30% methanol, 4% acetic acid.
# (§4) One of the pair of duplicate bands for the 97.4, 66.2, 55.0 and 42.7 kilodalton standards from the lanes containing 2.0, 1.0, 0.5, and 0.25 μg of protein per band were excised with a razor blade as were two control gel segments from regions of the gel not containing protein. The excised segments were placed in individual 1.5 ml Eppendorf tubes containing 2% SDS and allowed to incubate at room temperature for 72 hours. After this time, the solutions were removed from the extracted segments and acetic acid was added to 2% (v/v) final concentration. The absorption of the solutions at […] was then measured.
# [4] = test system: glutamate dehydrogenase; experiment: as above; details: 55 Kd
# Method: as §2, §3, §4
# [5] = test system: ovalbumin; experiment: as above; details: 43 Kd
# Method: as §2, §3, §4
# [6] = test system: phosphorylase B; experiment: as above; details: 97 kD
# Method: as §2, §3, §4
# [7] = test system: Promega Mid-Range Molecular Weight Standards; experiment: Quantitation of proteins separated by SDS-PAGE, sensitivity overall; details: extracted bands
# Method: as §3, §4
# [8] = test system: Promega Mid-Range Molecular Weight Markers; experiment: Recovery of protein using novel recovery method (liquid reservoir in gel); details: 8% SDS-PAGE gel, slots below bands
# Description: Because Promega Green 1 can be used to stain protein during electrophoretic separations, we determined that proteins separated by gel electrophoresis can be recovered into a liquid reservoir placed in the gel. This is possible only with in-situ stained proteins because it would not be obvious where to place the liquid reservoir otherwise.
# Accordingly, an 8% SDS-PAGE gel was made, loaded and run as described in the preceding example. After the run was complete, one of the glass plates encasing the gel was removed and 1.0×0.3 cm slots were excised from the gel immediately below the 97, 66, 40, and 31 kilodalton standards The gel was then placed in a flat bed electrophoresis apparatus which had its buffer chambers filled with 25 mM tris base, 192 mM glycine (electrode buffer) to the level of the central, raised portion of the apparatus. The gel was placed in the apparatus such that the acrylamide gel above the remaining glass plate was filled with electrode buffer. The slots were also filled with electrode buffer and electric connection was made between the gel and the buffer chambers by use of Whatman 3 mM paper wicks soaked in transfer buffer and then 160 V was applied to the apparatus for 2 minutes. After this, the buffer in the slots was removed and placed in 1.5 ml Eppendorf tubes, the slots were refilled with fresh electrode buffer and the voltage was reapplied. […]
smiles,measurement,setting,value
CCCCCCCC(=O)N(c1ccc(OCC)cc1)c1ccc(C(=C2C=CC(=[N+](CC)Cc3cccc(S(=O)(=O)[O-])c3)C=C2)c2ccc(N(CC)Cc3cccc(S(=O)(=O)O)c3)cc2)cc1 [Promega Green 1],staining of BSA in gel without SDS,[1],seen to migrate through the gel as stained bands
same,staining of carbonic anhydrase in gel without SDS,[2],seen to migrate through the gel as stained bands
same,Absorbance at 630 nm,[3]; 0.25 μg/band,.052
same,Absorbance at 630 nm,[3]; 0.50 μg/band,.074
same,Absorbance at 630 nm,[3]; 1.00 μg/band,.138
same,Absorbance at 630 nm,[3]; 2.00 μg/band,.192
same,Absorbance at 630 nm,[4]; 0.25 μg/band,.053
same,Absorbance at 630 nm,[4]; 0.50 μg/band,.063
same,Absorbance at 630 nm,[4]; 1.00 μg/band,.105
same,Absorbance at 630 nm,[4]; 2.00 μg/band,.138
same,Absorbance at 630 nm,[5]; 0.25 μg/band,.042
same,Absorbance at 630 nm,[5]; 0.50 μg/band,.064
same,Absorbance at 630 nm,[5]; 1.00 μg/band,.126
same,Absorbance at 630 nm,[5]; 2.00 μg/band,.195
same,Absorbance at 630 nm,[6]; 0.25 μg/band,.032
same,Absorbance at 630 nm,[6]; 0.50 μg/band,.053
same,Absorbance at 630 nm,[6]; 1.00 μg/band,.083
same,Absorbance at 630 nm,[6]; 2.00 μg/band,.128
same,lowest amount of protein measured quantitatively,[7],250 ng
same,capture of protein bands in liquid reservoir,[8],the desired protein bands had been captured by this method

# — patent publication US5705649A, “Protein staining compositions and methods” (Promega Corporation, priority 1995, dated 1998)
